Reference: patent US6379959B1, “Metalocarboxypeptidase inhibitors and derived molecules used as antitumor agents” (Universitat Autonoma de Barcelona, priority 1996, dated 2002)
Positions of bridges follow the written chain, without caps; N, C: chain ends. No end group written: not given here.

Tests used:
[1] = system: mouse melanoma B16 cell line; test: Metastasis test in vivo, liver metastatic focuses after intrasplenic B16 inoculation; design: species or system mice C57BL/6J; conditions: killed day 11 (control 32±7)
Procedure: In order to study the effect of the PCI on the metastatic capacity of the tumoral cells, mouse melanoma B16 cell line are used used because this line is singeneic with the mice. These cells, intrasplenically inoculated in singeneic mice, after 7 days, start to develop metastasis in the liver of the mouse. The following material was employed:
A control group: consisting of 5 mice to which 300,000 cells dissolved in 0.1 mL of alphaMEM-Hepes were inoculated. The mice, previously anaesthetized with nembutal, were inoculated by way of intrasplenic injection, by means of a little incision and subsequently closed with stitches. These mice were killed 11 days after injection of the tumoral cells by cervical dislocation.
Treatment 1: again, 5 mice were inoculated in the same way as those of the control group. Six days after the injection, a daily treatment with 0.1 mg/mL of PCI in 0.1, mL of PBS by way of intraperitoneal injection was started. The animals were also killed on the eleventh day after the injection.
Treatment 2: in this case, the cells inoculated to the mice (also 5 of them) were previously treated in vitro for 4 days in a concentration of 0.1 mg/mL of PCI. […]
Once killed, their liver was extracted. […] Afterwards, the sections were dyed with hematoxyline-eosine and the number of metastatic focuses was counted.

[2] = system: hamster insulinome cell line HIT; test: Proliferation test by recount of the cells number (hemocytometer), HIT; format: cell-based; conditions: Postadhesion, 4 days
Procedure: In this assay and with the aim of determining whether the presence in the culture medium produces some effect on the growth in vitro of the cell lines, the final number of the cells when the control reaches monolayer is determined, in the presence and in the absence of the inhibitor. The calculation is made by direct recount of the number of cells using trypsinization and subsequent recount in a hemocytometer. The detailed method is as follows: 1. In each of the three culture flasks of 25 cm^2, 5×10^5 cells are seed and a total volume of the culture medium is added (DMEM with a 10% of fetal bovine serum or synthetic serum, according to the test) of 5 mL: 2. The cells are maintained in an incubator at 37° C., 87% of relative humidity and 10% of CO2. […] The total number of cells of the W zone of the hemocytometer is counted, differentiating between the live and the dead ones. Based on this recount, the total number of cells that was in the initial suspension (which will be the total number of cells that was in the culture) is calculated by multiplying the number obtained by 2×10^4. The viability (in %) is calculated by dividing the number of live cells by the total number of counted cells and multiplying it by 100. The effect produced by the presence of PCI in the medium is expressed as % of cell growth inhibition, which is calculated according to the formula [formula] […]

[3] = system: human pancreatic adenocarcinoma cell line Capan-1; test: Growth curve of the cell line Capan-1 in presence or absence of PCI; format: cell-based; conditions: for Duplication time: DMEM + 10% FBS (control 85)
Procedure: The growth curve of the human pancreatic adenocarcinoma cell line Capan-1 was determined by culturing the cells in medium DMEM supplemented with 10% of FBS (see Section 4 ..B.1.). Plates with wells were used, each with a surface of 10 cm^2 (Nunc, Denmark). The number of cells initially placed per well was 1×10^5, and changes of medium were made every four days, adding new PCI in the medium in the case of the cells treated with PCI.
Three growth curves were determined (FIG. 10) in absence of PCI and in presence of PCI, in concentrations of 1 μg/mL and of 10 μg/mL. Initially, 45 replica-wells were placed for each treatment. After 15 days, three of the replica-wells of each treatment were taken and their number of cells counted by means of trypsinization and recount employing hemocytometer (for a description of the technique, see Section 4.B.1.). The results of the tests are shown in Table 13, which presents the duplication times calculated from the data.

PCI: potato carboxypeptidase inhibitor, isoform IIa, obtained by recombinant DNA techniques in E. coli (SEQ ID NO.2) (EQHADPICNKPCKTHDDCSGAWFCQACWNSARTCGPYVG; disulfide 12-27, 18-34, 8-24)
number of metastatic focuses in liver ([1]; treatment 1: daily intraperitoneal 0.1 mg/mL of PCI in 0.1 mL PBS from day 6): 27 focuses
number of metastatic focuses in liver ([1]; treatment 2: cells treated in vitro 4 days with 0.1 mg/mL of PCI before inoculation): 4±1 focuses
Percentage of Growth Inhibition ([2]; 10 mg PCI/mL): 43.0 ± 22.8%
Percentage of Growth Inhibition ([2]; 50 mg PCI/mL): 60.1 ± 28.3%
density reached by the stationary stage compared with the control cells ([3]; 10 μg/mL of PCI): a half
Duplication time ([3]; Treated with 1 mg/mL): 90 h
Duplication time ([3]; Treated with 10 mg/mL): 130 h
